Laboratory results from patent US20250129070A1, “BIFUNCTIONAL ANDROGEN RECEPTOR COMPOUNDS” (priority 2023, published 2025).
Like-named read-outs stand apart in the source and are kept apart here.

Key:
Type in all cases: cell-based
[1] = biological target: Histone H3.3/CBP-BD Interaction (Homo sapiens, UniProt Q92793); assay: NanoBRET cellular assay (Histone H3.3/CBP-BD Interaction Assay)
VCaP cells = assay: VCaP growth inhibition assay; conditions: 30 pM R1881, 9 days, CTG
Method in brief: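 Growth read by CTG luminescence after 9-day exposure to compound (final 100 nM–10 fM, 1:5 steps) plus 30 pM R1881, in phenol red-free DMEM with 5% CSS. Cells pre-incubated 72 h before dosing; IC50 by nonlinear 4-parameter regression.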

AR / CBP ternary complex = assay: Ternary complex formation assay (sandwich ELISA, AR capture / CBP detection) in VCaP cell lysates; conditions: 1.5 hours treatment, sandwich ELISA (AR capture, CBP or p300 detection)
Method in brief: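 Anti-AR (AR 441)-coated plates capture AR from lysates of VCaP cells grown ≥3 days at 50K/well in 5% charcoal-stripped FBS, dosed with bifunctional for 1.5 h and lysed 30 min at 4 °C. Co-captured CBP/p300 is probed with rabbit mAb and HRP anti-rabbit, then QuantaRed fluorescence (570/585) is read at 0, 5 and 15 min.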

HEK-293 cells = assay: HEK-293 growth inhibition assay; conditions: 3 days, CTG
Method in brief: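 HEK-293 cells plated 24 hours before compound treatment, then exposed for 3 days at 37°C/5% CO2. Viability by CellTiter-Glo luminescence after 20 minutes at room temperature. IC50 from RLU versus concentration via 4-parameter logistic nonlinear regression.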

Histone H3.3/CBP-BD Interaction, sequence (Q92793 1085-1192 limits assumed): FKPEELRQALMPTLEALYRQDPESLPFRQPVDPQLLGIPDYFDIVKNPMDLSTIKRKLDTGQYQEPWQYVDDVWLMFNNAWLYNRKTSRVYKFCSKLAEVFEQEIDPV

Row | Structure (SMILES) | IC50 ([1]; HEK293 cells transfected with Histone H3.3-HaloTag and CBP-BD-NanoLuc, 22 hours treatment, test compounds starting at 1 uM, SGC-CBP-30 starting at 10 uM, 10-dose with 3-fold dilution) | IC50 (VCaP cells) | EC50 (AR / CBP ternary complex) | IC50 (HEK-293 cells) | IC50 [1]
1 | CNC(=O)N1CCc2c(c(N3CCCc4cc(-c5cnn(C)c5)c(C(F)F)cc43)nn2C2CCOCC2)C1 [GNE-781, reference compound] | 0.123 nM |  |  |  | 
2 | CNC(=O)N1CCc2c(c(N3CCCc4cc(-c5cnn(C)c5)c(C(F)F)cc43)nn2C2CCN(C(=O)CN3CCN(c4ncc(C(=O)NC5C(C)(C)C(Oc6ccc(C#N)c(Cl)c6)C5(C)C)cn4)CC3)CC2)C1 (centres unmarked) [Compound 109, 1-[1-[2-[4-[5-[[3-(3-chloro-4-cyano-phenoxy)-2,2,4,4-tetramethyl-cyclobutyl]carbamoyl]pyrimidin-2-yl]piperazin-1-yl]acetyl]-4-piperidyl]-3-[7-(difluoromethyl)-6-(1-methylpyrazol-4-yl)-3,4-dihydro-2H-quinolin-1-yl]-N-methyl-6,7-dihydro-4H-pyrazolo[4,3-c]pyridine-5-carboxamide] |  | ≤ 0.1 nM | < 1 nM | > 10000 nM | > 1000 nM
3 | CC(=O)N1CCc2c(c(-c3cccc4cc(-c5ccc(C(=O)NCCCc6ncc(C(=O)NC7C(C)(C)C(Oc8ccc(C#N)c(Cl)c8)C7(C)C)cn6)nc5)ncc34)nn2C2CCOCC2)C1 (centres unmarked) [Compound 77, 2-[3-[[5-[8-(5-acetyl-1-tetrahydropyran-4-yl-6,7-dihydro-4H-pyrazolo[4,3-c]pyridin-3-yl)-3-isoquinolyl]pyridine-2-carbonyl]amino]propyl]-N-[3-(3-chloro-4-cyano-phenoxy)-2,2,4,4-tetramethyl-cyclobutyl]pyrimidine-5-carboxamide] |  | 0.1 to 1 nM | < 1 nM | > 10000 nM | 
